Experimental findings from patent US10683292B2, “Purine and 3-deazapurine analogues as choline kinase inhibitors” (NERVIANO MEDICAL SCIENCES S.R.L., priority 2016, dated 2020) are described below.

Each structure is given as a SMILES string. Counter-ions that a name gives are not always drawn. Some results are limits rather than exact numbers.

Assay [1] has as its target T1, hChoKβ FL (Homo sapiens, UniProt Q9Y259).
T1 construct: hChoKβ full length (FL), corresponding to aminoacids 2-395; GST (N, cleaved yes); Prescission Protease recognition site (N, cleaved yes); made in house; host or cells: Escherichia coli BL21pLysS (DE3)
The experiment in a line: Biochemical kinase inhibition assay (Kinase-Glo Luminescent Kinase Assay) on hChoKβ FL. Particulars: ATP 5 μM, choline 20 μM, 60 minutes at rt; read-out: IC50 ChoKβ.
Description: (§1) The biochemical activity of compounds against Δ49N-ChoKα and ChoKβ FL were determined using the Kinase-Glo™ Luminescent Kinase Assay (Promega cat. V6711).
(§2) Compounds were 3-fold serially diluted from 10 to 0.0005 μM, then incubated for 60 minutes at rt in the presence of ATP 5 μM, choline (5 μM for ChoKα and 20 μM for ChoKβ) and enzyme in a final volume of 19 μL of kinase buffer (50 mM Hepes pH 7.5, 10 mM MgCl2, 1 mM DTT, 3 μM Na3VO4 and 0.2 mg/mL BSA). The final concentration of DMSO was 1%.
(§3) At the end of the incubation, an amount of 19 μL of KinaseGlo Reagent was added to each well to stop the reaction and after 30 minutes the luminescence signal was measured using ViewLux reader (Perkin Elmer).
(§4) The data per each molecule are analyzed by an internally customized version of the SW package “Assay Explorer” which provides sigmoidal fittings of the ten-dilution curves for IC50 determination using a 4 parameter logistic equation: y=bottom+(top−bottom)/(1+10^((log IC50−x)*slope)) where x is the logarithm of the inhibitor concentration, y is the response; y starts at bottom and goes to top with a sigmoid shape.

Assay [2] has as its target T2, Δ49N-hChoKα (Homo sapiens, UniProt P35790).
T2 construct: cDNA fragment 362-1534, corresponding to aminoacids 50-457; GST (N, cleaved yes); Prescission Protease recognition site (N, cleaved yes); made in house; host or cells: Escherichia coli BL21pLysS (DE3)
The experiment in a line: Biochemical kinase inhibition assay (Kinase-Glo Luminescent Kinase Assay) on Δ49N-hChoKα. The conditions noted are these: ATP 5 μM, choline 5 μM, 60 minutes at rt; read-out: IC50 ChoKα.
Description: as §1, §2, §3, §4

T2 sequence (P35790 50-457, stated change not applied): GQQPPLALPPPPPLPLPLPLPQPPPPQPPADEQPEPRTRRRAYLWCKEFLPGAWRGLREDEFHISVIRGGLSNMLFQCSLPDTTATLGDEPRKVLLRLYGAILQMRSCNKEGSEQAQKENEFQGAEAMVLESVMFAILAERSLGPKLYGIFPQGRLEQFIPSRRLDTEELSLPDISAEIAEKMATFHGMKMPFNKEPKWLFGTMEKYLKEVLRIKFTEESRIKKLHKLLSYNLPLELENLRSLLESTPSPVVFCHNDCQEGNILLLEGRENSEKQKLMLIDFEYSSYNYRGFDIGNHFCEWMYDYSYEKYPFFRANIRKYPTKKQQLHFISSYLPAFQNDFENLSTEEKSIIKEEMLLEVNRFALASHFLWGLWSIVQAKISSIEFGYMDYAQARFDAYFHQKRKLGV
T1 sequence (Q9Y259 2-395): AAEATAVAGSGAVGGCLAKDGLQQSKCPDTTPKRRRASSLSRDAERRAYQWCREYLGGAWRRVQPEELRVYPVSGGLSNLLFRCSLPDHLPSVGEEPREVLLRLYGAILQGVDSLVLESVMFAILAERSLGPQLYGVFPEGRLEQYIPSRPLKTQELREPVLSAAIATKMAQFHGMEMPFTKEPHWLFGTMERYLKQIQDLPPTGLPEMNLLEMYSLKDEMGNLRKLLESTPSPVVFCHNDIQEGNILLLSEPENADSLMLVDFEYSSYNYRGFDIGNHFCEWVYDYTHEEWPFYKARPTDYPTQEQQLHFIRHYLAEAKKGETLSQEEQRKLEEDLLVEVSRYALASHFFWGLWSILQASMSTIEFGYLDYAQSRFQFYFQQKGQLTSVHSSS

With `Cc1csc(NC(=O)[C@H]2CC[C@@H](n3cnc4c(N)nc(C#N)nc43)CC2)n1` [cpd 102, cis-4-(6-amino-2-cyano-9H-purin-9-yl)-N-(4-methyl-1,3-thiazol-2-yl)cyclohexanecarboxamide], the values for the IC50 in assay [1] and in assay [2] were over 10000 nM and 88 nM, respectively.

On to `Cc1csc(NC(=O)[C@H]2CC[C@@H](n3cnc4c(N)nc(-c5cccc(O)c5)nc43)CC2)n1` [cpd 103, cis-4-[6-amino-2-(3-hydroxyphenyl)-9H-purin-9-yl]-N-(4-methyl-1,3-thiazol-2-yl)cyclohexanecarboxamide], for which the half-inhibitory concentration (IC50) (in general, the point on the concentration scale where inhibition reaches its midpoint) in assay [1] was over 10000 nM; in assay [2], 176 nM.

In the case of `Cc1csc(NC(=O)[C@H]2CC[C@@H](n3cnc4c(N)nc(-c5cc[nH]n5)nc43)CC2)n1` [cpd 112, cis-4-[6-amino-2-(1H-pyrazol-3-yl)-9H-purin-9-yl]-N-(4-methyl-1,3-thiazol-2-yl)cyclohexanecarboxamide], the IC50 in assay [1] is over 10000 nM; in assay [2], 120 nM.

As for `Cc1csc(NC(=O)[C@H]2CC[C@H](n3cnc4c(N)nc(-c5cc[nH]n5)nc43)CC2)n1` [cpd 113, trans-4-[6-amino-2-(1H-pyrazol-3-yl)-9H-purin-9-yl]-N-(4-methyl-1,3-thiazol-2-yl)cyclohexanecarboxamide], the 50% inhibitory concentration (IC50) in assay [1] is over 10000 nM; in assay [2], 613 nM.

For the compound `COc1cccc2sc(NC(=O)[C@H]3CC[C@@H](n4cnc5c(N)nc(I)nc54)CC3)nc12` [cpd 116, cis-4-(6-amino-2-iodo-9H-purin-9-yl)-N-(4-methoxy-1,3-benzothiazol-2-yl)cyclohexanecarboxamide], the IC50 is over 10000 nM in assay [1] and 43 nM in assay [2].

`C#Cc1nc(N)c2ncn([C@H]3CC[C@@H](C(=O)Nc4nc5c(OC)cccc5s4)CC3)c2n1` [cpd 119, cis-4-(6-amino-2-ethynyl-9H-purin-9-yl)-N-(4-methoxy-1,3-benzothiazol-2-yl)cyclohexanecarboxamide]: the half-inhibitory concentration (IC50) in assay [1] was 7700 nM; in assay [2] it was 21 nM.

In the case of `Nc1nc(Cl)nc2c1ncn2[C@H]1CC[C@@H](C(=O)Nc2nc(CN3CCC(N)CC3)cs2)CC1` [cpd 120, cis-4-(6-amino-2-chloro-9H-purin-9-yl)-N-{4-[(4-aminopiperidin-1-yl)methyl]-1,3-thiazol-2-yl}cyclohexanecarboxamide], the IC50 in assay [1] was over 10000 nM; in assay [2], 40 nM.

In the case of `COc1cccc2sc(NC(=O)[C@H]3CC[C@@H](n4cnc5c(N)nc(F)nc54)CC3)nc12` [cpd 126, cis-4-(6-amino-2-fluoro-9H-purin-9-yl)-N-(4-methoxy-1,3-benzothiazol-2-yl)cyclohexanecarboxamide], the IC50 in assay [1] is over 10000 nM; in assay [2], 31 nM.

As for `Nc1nc(F)nc2c1ncn2[C@H]1CC[C@@H](C(=O)Nc2nc3c(O)cccc3s2)CC1` [cpd 127, cis-4-(6-amino-2-fluoro-9H-purin-9-yl)-N-(4-hydroxy-1,3-benzothiazol-2-yl)cyclohexanecarboxamide], the IC50 in assay [1] was over 10000 nM; in assay [2], 45 nM.

`Nc1nc(F)nc2c1ncn2[C@H]1CC[C@@H](C(=O)Nc2nc3ccc(F)cc3s2)CC1` [cpd 128, cis-4-(6-amino-2-fluoro-9H-purin-9-yl)-N-(6-fluoro-1,3-benzothiazol-2-yl)cyclohexanecarboxamide]: the IC50 in assay [1] was over 10000 nM; in assay [2] it was 38 nM.

For the compound `Cc1csc(NC(=O)[C@H]2CC[C@@H](n3cnc4c(N)nc(C(F)(F)F)nc43)CC2)n1` [cpd 129, cis-4-[6-amino-2-(trifluoromethyl)-9H-purin-9-yl]-N-(4-methyl-1,3-thiazol-2-yl)cyclohexanecarboxamide], the IC50 in assay [1] is over 10000 nM; in assay [2], 416 nM.

Regarding `Nc1nc(C(F)(F)F)nc2c1ncn2[C@H]1CC[C@@H](C(=O)Nc2nc3ccc(F)cc3s2)CC1` [cpd 132, cis-4-[6-amino-2-(trifluoromethyl)-9H-purin-9-yl]-N-(6-fluoro-1,3-benzothiazol-2-yl)cyclohexanecarboxamide], the IC50 is over 10000 nM in assay [1] and 257 nM in assay [2].

As to `Nc1nc(Cl)nc2c1ncn2[C@H]1CC[C@@H](C(=O)Nc2nc3ccncc3s2)CC1` [cpd 138, cis-4-(6-amino-2-chloro-9H-purin-9-yl)-N-([1,3]thiazolo[5,4-c]pyridin-2-yl)cyclohexanecarboxamide hydrochloride], the IC50 in assay [1] is over 10000 nM; in assay [2], 97 nM.

For the compound `Nc1nc(Cl)nc2c1ncn2[C@H]1CC[C@@H](NC(=O)c2nc3ccccc3s2)CC1` [cpd 140, N-[cis-4-(6-amino-2-chloro-9H-purin-9-yl)cyclohexyl]-1,3-benzothiazole-2-carboxamide], the half-inhibitory concentration (IC50) in assay [1] is over 10000 nM; in assay [2], 514 nM.

Consider `COc1cccc(C(=O)N[C@H]2CC[C@@H](n3cnc4c(N)nc(Cl)nc43)CC2)c1` [cpd 144, N-[cis-4-(6-amino-2-chloro-9H-purin-9-yl)cyclohexyl]-3-methoxybenzamide], for which the IC50 is over 10000 nM in assay [1] and 341 nM in assay [2].

Regarding `Cc1csc(NC(=O)[C@H]2CC[C@@H](n3cnc4c(N)nc(C(N)=O)nc43)CC2)n1` [cpd 146, 6-amino-9-{cis-4-[(4-methyl-1,3-thiazol-2-yl)carbamoyl]cyclohexyl}-9H-purine-2-carboxamide], the IC50 in assay [1] was over 10000 nM; in assay [2], 73 nM.

As for `Nc1nc2ccc(OC(=O)[C@H]3CC[C@@H](n4cnc5c(N)nc(Cl)nc54)CC3)cc2s1` [cpd 159, 2-amino-1,3-benzothiazol-6-yl cis-4-(6-amino-2-chloro-9H-purin-9-yl)cyclohexanecarboxylate], the IC50 worked out at 7040 nM in assay [1] and 65 nM in assay [2].

In the case of `Nc1nc2c(OC(=O)[C@H]3CC[C@@H](n4cnc5c(N)nc(F)nc54)CC3)cccc2s1` [cpd 160, 2-amino-1,3-benzothiazol-4-yl cis-4-(6-amino-2-fluoro-9H-purin-9-yl)cyclohexanecarboxylate], the concentration for half-maximal inhibition (IC50) in assay [1] was over 10000 nM; in assay [2] it was 197 nM.

For the compound `CN(c1nc(CC(N)=O)cs1)C(=O)[C@H]1CC[C@@H](n2cnc3c(N)nc(Cl)nc32)CC1` [cpd 164, cis-4-(6-amino-2-chloro-9H-purin-9-yl)-N-[4-(2-amino-2-oxoethyl)-1,3-thiazol-2-yl]-N-methylcyclohexanecarboxamide], the results for the half-inhibitory concentration (IC50) in assay [1] and in assay [2] were over 10000 nM and 70 nM, respectively.

With `CN(C)c1ccc2nc(NC(=O)[C@H]3CC[C@@H](n4cnc5c(N)nc(Cl)nc54)CC3)sc2c1` [cpd 165, cis-4-(6-amino-2-chloro-9H-purin-9-yl)-N-[6-(dimethylamino)-1,3-benzothiazol-2-yl]cyclohexanecarboxamide], the half-inhibitory concentration (IC50) is over 10000 nM in assay [1] and 60 nM in assay [2].

With `Nc1nc(Cl)nc2c1ncn2[C@H]1CC[C@@H](C(=O)Nc2nc3cc(F)c(F)cc3s2)CC1` [cpd 168, cis-4-(6-amino-2-chloro-9H-purin-9-yl)-N-(5,6-difluoro-1,3-benzothiazol-2-yl)cyclohexanecarboxamide], the half-inhibitory concentration (IC50) is over 10000 nM in assay [1] and 45 nM in assay [2].

Regarding `CC(C)(C)OC(=O)N1CCc2nc(NC(=O)[C@H]3CC[C@@H](n4cnc5c(N)nc(Cl)nc54)CC3)sc2C1` [cpd 169, tert-butyl 2-({[cis-4-(6-amino-2-chloro-9H-purin-9-yl)cyclohexyl]carbonyl}amino)-6,7-dihydro[1,3]thiazolo[5,4-c]pyridine-5(4H)-carboxylate], the half-maximal inhibitory concentration (IC50) in assay [1] is 5550 nM; in assay [2], 52 nM.

As to `COc1nc(N)c2ncn([C@H]3CC[C@@H](C(=O)Nc4nc5ccc(F)cc5s4)CC3)c2n1` [cpd 170, cis-4-(6-amino-2-methoxy-9H-purin-9-yl)-N-(6-fluoro-1,3-benzothiazol-2-yl)cyclohexanecarboxamide], the half-maximal inhibitory concentration (IC50) in assay [1] is over 10000 nM; in assay [2], 54 nM.

In the case of `Nc1nc(Cl)nc2c1ncn2[C@H]1CC[C@@H](C(=O)Nc2nc3cc(F)c(F)c(F)c3s2)CC1` [cpd 171, cis-4-(6-amino-2-chloro-9H-purin-9-yl)-N-(5,6,7-trifluoro-1,3-benzothiazol-2-yl)cyclohexanecarboxamide], the figures for the concentration for half-maximal inhibition (IC50) in assay [1] and in assay [2] were 5800 nM and 105 nM, respectively.

`COC(=O)Cc1ccc2nc(NC(=O)[C@H]3CC[C@@H](n4cnc5c(N)nc(Cl)nc54)CC3)sc2c1` [cpd 174, methyl [2-({[cis-4-(6-amino-2-chloro-9H-purin-9-yl)cyclohexyl]carbonyl}amino)-1,3-benzothiazol-6-yl]acetate]: the IC50 in assay [1] is over 10000 nM; in assay [2], 41 nM.

As to `Nc1nc(Cl)nc2c1ncn2[C@H]1CC[C@@H](C(=O)Nc2nc3ccc(Br)cc3s2)CC1` [cpd 175, cis-4-(6-amino-2-chloro-9H-purin-9-yl)-N-(6-bromo-1,3-benzothiazol-2-yl)cyclohexanecarboxamide], the half-maximal inhibitory concentration (IC50) in assay [1] was over 10000 nM; in assay [2] it was 49 nM.

For `Nc1nc(Cl)nc2c1ncn2[C@H]1CC[C@@H](C(=O)Nc2nc3ccc(CC(=O)O)cc3s2)CC1` [cpd 176, [2-({[cis-4-(6-amino-2-chloro-9H-purin-9-yl)cyclohexyl]carbonyl}amino)-1,3-benzothiazol-6-yl]acetic acid], the results for the half-inhibitory concentration (IC50) in assay [1] and in assay [2] were 4020 nM and 34 nM, respectively.

In the case of `Nc1nc(Cl)nc2c1ncn2[C@H]1CC[C@@H](C(=O)Nc2nc3ccc(OC(F)F)cc3s2)CC1` [cpd 180, cis-4-(6-amino-2-chloro-9H-purin-9-yl)-N-[6-(difluoromethoxy)-1,3-benzothiazol-2-yl]cyclohexanecarboxamide], the half-inhibitory concentration (IC50) in assay [1] is 6800 nM; in assay [2], 23 nM.
